Assay [1] deals with E. coli ATCC 25922. Put plainly: Antibiotic interaction assay (Wimley), 2/3 broth microdilution: MIC alone, MIC of combination, FICI. In kind it is cell-based. The note with it: for MIC of combination (μM): antibiotic: concentration of labelled drug in combination with KL-L9P; for FICI of drug with KL-L9P / FICIKL-L9P / FICIantibiotic: labelled drug + KL-L9P; for MIC of drug with 1 μM KL-L9P / dilution of MIC relative to drug alone: with 1 μM of KL-L9P; for FICI of drug with colistin: labelled drug + colistin. As for the experimental part:
Synergy was evaluated by an antibiotic interaction assay (Wimley, 2015) Using the method of Wimley (BBA, 2015, v. 1848(1), pp. 8-15), synergy between the membrane-activating peptide and an antibiotic was measured by an FICI value (FIG. 17). […] Thus, to accurately examine synergy, a ⅔ dilution method which observes MIC at denser concentration intervals is advantageous over a ½ dilution method in statistical terms. […] In the same manner, the MIC of an antibiotic or repositioning drug (second line) is measured. In the third line, the two compounds are mixed after putting half amount each, and the MIC thereof is measured.
A broth microdilution technique (⅔ dilution) was used together with an MH broth. E. coli treated with an antibiotic and the peptide was incubated in a 37° C. incubator for 18 hours.
(§1) To measure the synergy between the membrane-activating peptides and the repositioning drug, a 10× compound was prepared, and then serially diluted ⅔-fold with distilled water. An MH broth (900 μl) was added to and mixed with the 10× compound (100 μl), and then 200 μL of the mixture was taken and added to a 96-well plate. E. coli cultured for one day was adjusted to 0.5 MCF using MCFarland, and diluted 10-fold, and then 10 μl of the dilution was added to each well of the plate (5×10^5 CFU/mL). After addition of the bacterial cells, plate was incubated at 37° C. for 18 hours, and then the OD value at UV-Vis (600 nm) was measured. Cell viability (%)=(OD600 of sample−OD600 of negative control)/(OD600 of positive control−OD600 of negative control)×100.
(In general: Broth dilution looks for growth in wells or tubes with falling amounts of substance.)

Assay [2] relates to Escherichia coli (ATCC 25922). The note with it: peptide alone; peptide concentration required to inhibit growth by 20% (so in the source). Here is the method:
The N-terminus of the peptides were acetylated and the C-terminus was amidated. The kinked structure can rapidly reduce the alpha-helical content, thereby greatly reducing the toxicity of the peptide against host cells. In addition, because of the potential to show specificity for the Gram-negative bacterial membrane, Pro-mutants were prepared by site-directed mutagenesis. Using the prepared peptides, their MIC for the Gram-negative bacterium E. coli and the Gram-positive bacterium S. aureus and their hemolytic activity for host cells were examined (Table 1).
as §1

The mark [3] stands for this setting: Escherichia coli, ATCC25922, 18 h, Tables 19-23, read-out: MIC (μM) against E. coli ATCC, 1 compound alone.
Setting [4] is: Escherichia coli, ATCC25922, 18 h, drug alone, <20% growth of positive control, read-out: MIC of antibiotic.

This note sets out measurements from US20180339016A1 (priority 2015, published 2018).

Like-named read-outs stand apart in the source and are kept apart here.

`COc1cc(/C=C/C(=O)CC(=O)/C=C/c2ccc(O)c(OC)c2)ccc1O` [curcumin]: in assay [1] (setting [3]), the MIC – broadly, the lowest concentration that inhibits growth of the organism – was 300 µM. Moreover, in assay [1] (setting [4]), the MIC came to 396 µM. Further, the “MIC (μM) against E. coli ATCC, combination of 3 compounds” value (shortened to “MIC (μM) … of 3 compounds”) in assay [1] (KL-L9P + colistin + curcumin, concentration of labelled component) came out at 20 µM. The “MIC (μM) against E. coli ATCC, combination of two compounds” value (“MIC (μM) … of two compounds” for short) in assay [1] (KL-L9P + curcumin, concentration of labelled component) amounted to 79 µM. Moreover, the “MIC (μM) … of two compounds” value in assay [1] (colistin + curcumin, concentration of labelled component) stood at 83 µM. In addition, in assay [1], the “MIC of combination (μM): antibiotic” value was determined as 78.70 µM, the “FICI of drug with KL-L9P” value worked out at 0.30, the FICIKL-L9P was found to be 0.10 and the FICIantibiotic turned out to be 0.20. Also, in assay [1], the “MIC of drug with 1 μM KL-L9P” value turned out to be 4 µM and the “dilution of MIC relative to drug alone” value is “about 330 fold”.
For `CC(C)Cc1ccc([C@@H](C)C(=O)O)cc1` [(R)-ibuprofen], the MIC in assay [1] (setting [4]) came out at 12000 µM. Besides, in assay [1], the “MIC of combination (μM): antibiotic” value came out at 555.56 µM, the “FICI of drug with KL-L9P” value was 0.27, the FICIKL-L9P turned out to be 0.23 and the FICIantibiotic came to 0.05.
The like results for `CC(C)c1c(C(=O)Nc2ccccc2)c(-c2ccccc2)c(-c2ccc(F)cc2)n1CC[C@@H](O)C[C@@H](O)CC(=O)O` [atorvastatin] were, in that order, greater than 500 µM, 166.67 µM, 0.60, 0.38 and 0.22.
On to `O=C(O)c1cn(C2CC2)c2cc(N3CCNCC3)c(F)cc2c1=O` [ciprofloxacin], for which the “synergy with KL-L9P” value in assay [1] is “not synergistic”.
`Cc1onc(-c2ccccc2Cl)c1C(=O)N[C@@H]1C(=O)N2[C@@H]1SC(C)(C)[C@@H]2C(=O)O` [cloxacillin]: the MIC in assay [1] (setting [3]) was determined as 70 µM. For the same compound, the MIC in assay [1] (setting [4]) is 74.1 µM. The “MIC (μM) … of two compounds” value in assay [1] (KL-L9P + cloxacillin, concentration of labelled component) was 18 µM. For the same compound, the “MIC (μM) … of 3 compounds” value in assay [1] (KL-L9P + colistin + cloxacillin, concentration of labelled component) turned out to be 9.4 µM. Besides, the “MIC (μM) … of two compounds” value in assay [1] (colistin + cloxacillin, concentration of labelled component) was 38 µM. Besides, in assay [1], the “MIC of combination (μM): antibiotic” value turned out to be 17.78 µM, the FICIKL-L9P is 0.25, the FICIantibiotic is 0.24 and the “FICI of drug with colistin” value was “about 1”. In assay [1], the “MIC of drug with 1 μM KL-L9P” value stood at 0.3 µM and the “dilution of MIC relative to drug alone” value came to 128 fold.
KLLKLLKKNLKLLK [KL L9N]: the “MIC [μM] Against E. coli” value in assay [2] came to 2.5 µM.
The same measure, in the same setting: for KLLKLLKKELKLLK [KL L9E] the value was 5 µM; for KLLKLLKKGLKLLK [KL L9G], 1.25 µM.
Consider `CC(=O)Nc1ccc(O)cc1` [acetaminophen], for which the “synergy with KL-L9P” value in assay [1] is “not synergistic”.
For `CN(C)[C@@H]1C(=O)C(C(N)=O)=C(O)[C@@]2(O)C(=O)C3=C(O)c4c(O)cccc4[C@@](C)(O)[C@H]3C[C@@H]12` [tetracyclin], the “synergy with KL-L9P” value in assay [1] is recorded as “not synergistic”.
Regarding KLLKLAKKPLKLLK [KL-L6AL9P], the “MIC [μM] Against E. coli” value in assay [2] came to 89 µM.
With `COc1ccc2cc3[n+](cc2c1OC)CCc1cc2c(cc1-3)OCO2` [berberine], in assay [1], the “synergy with KL-L9P” value is listed as “not synergistic”, the “MIC of combination (μM): antibiotic” value was 273.15 µM, the FICIKL-L9P was determined as 0.53 and the FICIantibiotic was determined as 0.92. The MIC in assay [1] (setting [4]) was found to be 298 µM.
Regarding Mtx- LKKLLKLPKKLLKL [Mtx-LK-L8P], in assay [2], the “MIC [μM] Against E. coli” value turned out to be 5.0 µM.
Regarding `CC(C)Cc1ccc([C@H](C)C(=O)O)cc1` [(S)-ibuprofen], the MIC in assay [1] (setting [3]) was 12000 µM. The MIC in assay [1] (setting [4]) came to 12000 µM. In addition, the “MIC (μM) … of two compounds” value in assay [1] (KL-L9P + (S)-ibuprofen, concentration of labelled component) was 420 µM. The “MIC (μM) … of 3 compounds” value in assay [1] (KL-L9P + colistin + (S)-ibuprofen, concentration of labelled component) worked out at 98 µM. Further, the “MIC (μM) … of two compounds” value in assay [1] (colistin + (S)-ibuprofen, concentration of labelled component) stood at 830 µM. For the same compound, in assay [1], the “MIC of combination (μM): antibiotic” value amounted to 416.67 µM, the “FICI of drug with KL-L9P” value was 0.23, the FICIKL-L9P stood at 0.20 and the FICIantibiotic is given as 0.03.
As for `O=c1c(O)c(-c2ccc(O)c(O)c2)oc2cc(O)cc(O)c12` [quercetin], the MIC in assay [1] (setting [4]) was found to be 7500 µM. In assay [1], the “MIC of combination (μM): antibiotic” value stood at 108.39 µM, the “FICI of drug with KL-L9P” value is reported as 0.35, the FICIKL-L9P turned out to be 0.33 and the FICIantibiotic was 0.01.
With Mtx- KLLKLLKKPLKLLK [Mtx-KL-L9P], the “MIC [μM] Against E. coli” value in assay [2] was determined as 5.0 µM.
With `N[C@@H]1CONC1=O` [D-cycloserine], the “synergy with KL-L9P” value in assay [1] is listed as “not synergistic”.
Consider `CC[C@H](C)C(=O)O[C@H]1C[C@@H](C)C=C2C=C[C@H](C)[C@H](CC[C@@H]3C[C@@H](O)CC(=O)O3)[C@H]21` [lovastatin], for which, in assay [1] (setting [4]), the MIC was greater than 500 µM. In assay [1], the “MIC of combination (μM): antibiotic” value is 74.07 µM, the “FICI of drug with KL-L9P” value worked out at 0.24, the FICIKL-L9P was found to be 0.14 and the FICIantibiotic worked out at 0.10.
`Oc1ccc(C=Cc2cc(O)cc(O)c2)cc1` [resveratrol]: the MIC in assay [1] (setting [4]) was 1770 µM. In assay [1], the “MIC of combination (μM): antibiotic” value stood at 246.91 µM, the “FICI of drug with KL-L9P” value came out at 0.25, the FICIKL-L9P stood at 0.11 and the FICIantibiotic amounted to 0.14.
Turning to `CC(C)Cc1ccc(C(C)C(=O)O)cc1` (stereo not shown) [ibuprofen], in assay [1], the “MIC of drug with 1 μM KL-L9P” value was found to be 3 µM and the “dilution of MIC relative to drug alone” value is listed as “about 3000 fold”.
`CC(=O)NC[C@H]1CN(c2ccc(N3CCOCC3)c(F)c2)C(=O)O1` [linezolid]: in assay [1], the “lowering of MIC in combination KL-L9P/colistin/linezolid versus alone” value amounted to 10 fold, the “MIC of combination (μM): antibiotic” value was found to be 15.80 µM, the FICIKL-L9P turned out to be 0.18 and the FICIantibiotic amounted to 0.22. For the same compound, in assay [1], the “FICI of drug with colistin” value was “about 1”, the “MIC of drug with 1 μM KL-L9P” value amounted to 10 µM and the “dilution of MIC relative to drug alone” value was “about 16 fold”. Besides, in assay [1] (setting [3]), the MIC was found to be 70 µM. Moreover, the MIC in assay [1] (setting [4]) turned out to be 71.1 µM. For the same compound, the minimal inhibitory concentration (MIC) in assay [1] (Escherichia coli, ATCC25922, Example 7, read-out: MIC when the three compounds were used alone) was 60 µM. Also, the MIC in assay [1] (Escherichia coli, ATCC25922, linezolid alone, read-out: MIC of Linezolid) is 83 µM. Besides, the “MIC (μM) … of 3 compounds” value in assay [1] (KL-L9P + colistin + linezolid, concentration of labelled component) came to 6.7 µM. Besides, the “MIC (μM) … of two compounds” value in assay [1] (KL-L9P + linezolid, concentration of labelled component) is 16 µM. In addition, the “MIC (μM) … of two compounds” value in assay [1] (colistin + linezolid, concentration of labelled component) was 36 µM. In assay [1] (concentration of labelled component), the “concentration killing E. coli in combination KL-L9P/colistin/linezolid” value came out at 6 µM. The MIC in assay [1] (linezolid alone, read-out: MIC of Linezolid) worked out at 59 µM.
Take KLAKLAKKPLKLAK [KLA-L9P]: the “MIC [μM] Against E. coli” value in assay [2] was greater than 200 µM.
Take `CCC(C)(C)C(=O)O[C@H]1C[C@@H](C)C=C2C=C[C@H](C)[C@H](CC[C@@H]3C[C@@H](O)CC(=O)O3)[C@H]21` [simvastatin]: the MIC in assay [1] (setting [3]) was greater than 500 µM; in assay [1] (setting [4]) it was greater than 500 µM; in assay [1] (Escherichia coli, ATCC25922, simvastatin alone, read-out: MIC of simvastatin), 750 µM. For the same compound, in assay [1] (KL-L9P + colistin + simvastatin, concentration of labelled component), the “MIC (μM) … of 3 compounds” value is 33 µM. In addition, the “MIC (μM) … of two compounds” value in assay [1] (KL-L9P + simvastatin, concentration of labelled component) is 53 µM; in assay [1] (colistin + simvastatin, concentration of labelled component), 71 µM. Also, the “MIC of combination (μM): antibiotic” value in assay [1] came to 52.47 µM. The “FICI of drug with KL-L9P” value in assay [1] came to 0.18. Further, the FICIKL-L9P in assay [1] came to 0.11. Besides, the FICIantibiotic in assay [1] amounted to 0.07.
As for KLLKLLKKQLKLLK [KL L9Q], the “MIC [μM] Against E. coli” value in assay [2] amounted to 1.25 µM.
In the case of Mtx- KLLKLPKKLLKLLK [Mtx-KL-L6P], the “MIC [μM] Against E. coli” value in assay [2] is 5.0 µM.
In the case of `CC(=O)Oc1ccccc1C(=O)O` [aspirin], in assay [1], the “synergy with KL-L9P” value is reported as “not synergistic”, the “MIC of combination (μM): antibiotic” value amounted to 479.17 µM, the “FICI of drug with KL-L9P” value came out at 1.59 and the FICIKL-L9P stood at 0.66. In addition, the FICIantibiotic in assay [1] was 0.92. The MIC in assay [1] (setting [4]) is 519 µM.
In the case of KLLKLLKKSLKLLK [KL L9S], in assay [2], the “MIC [μM] Against E. coli” value was determined as 1.25 µM.
